Experimental data as given in patent US20060269504A1, “Use of alkyl resorcinols in the treatment of acne” (priority 2003, published 2006).
Values after ≈ are worked out from the molar mass of the structure shown. “Also recorded” adds a separate entry of the source. Read-outs that look alike come from different tables or passages of the source.

Legend:
[1] = tested on: Corynebacterium sp. NCIMB 40928; assay: In vitro corynebacterial model: pentadecanoic acid biotransformation to propionic acid (GC) and culture viability (TVC); type: cell-based; settings: for BIC50, concentration at 50% inhibition of pentadecanoic acid biotransformation to propionic acid: aerobic, 35° C.; for BIC50 MoA(s), mode of action at BIC50 level: by reference to culture viability data; for MBC: read-out: MBC, minimum bactericidal levels
Protocol: (§1) The propionibacterial model involved the use of 7 ml glass vials, to which were added 6.0 ml synthetic medium (see below), supplemented with glucose substrate (2.0 mg/ml). The corynebacterial model involved the use of 250 ml baffled shake flasks, to which were added 30.0 ml synthetic medium (see below), supplemented with fatty acid substrate (2.0 mg/ml pentadecanoic acid). To each vial or flask (other than controls) was also added one of the indicated test materials, from a 1.0-10.0% (w/v) stock solution in 50% (v/v) ethanol. Each assay was inoculated with fresh bacterial biomass (Propionibacterium acnes G63 [skin isolate], P. avidum NCTC 11864 or Corynebacterium sp. NCIMB 40928), pre-grown for 24-48 h, under aerobic (corynebacteria) or anaerobic (propionibacteria) conditions, in TSBT (see below), to give starting optical densities (A590) of ˜1.0. Following inoculation, the vials and flasks were incubated aerobically (corynebacteria) or anaerobically (propionibacteria) at 35° C., with agitation (120 rpm), for 24 h. After this time, culture viability was determined by total viable count (TVC) analysis on ACX plates (see below), following serial dilution in quarter-strength Ringers solution. Also, at the end of each experiment, the extent of glucose or fatty acid biotransformation to propionic acid was measured by capillary gas chromatography (GC) (see below), and the dose response data used to calculate, for each active ingredient, a BIC so value (50% biotransformation inhibition concentration). The mode of action (bacteriostatic or bactericidal) at this level was elucidated by reference to culture viability data, which was also used to determine the MBC (minimum bactericidal concentration), defined as the minimum level of each active effecting a >3 log10 ml^31 1 reduction in viability (Tables 1 & 2). Finally, the data for P. acnes G63 and P. avidum NCTC 11864 were combined to generate mean and range anti-propionibacterial values (Table 1).
(§2) KH2PO4 (1.6); (NH4)2HPO4 (5.0); Na2SO4 (0.38); KNO3 (0.1); NaHCO3 (1.0); sodium thioglycolate (1.0); sodium pyruvate (1.0); yeast nitrogen base (Difco) (3.35); MgCl2.6H2O (0.5).
(§3) Tryptone soya broth (Merck) (30.0); yeast extract (Beta Lab) (10.0); Tween 80™ (5.0).
(§4) blood agar base no. 2 (Oxoid) (39.5); yeast extract (Beta Lab) (3.0); glucose (2.0); Tween 80 ™ (5.0); defibrinated horse blood (50 ml/l).
(§5) 1.0 ml aliquots from each assay vial were transferred into sampling tubes, an internal standard (1.0 mg/ml caproic acid) added to each tube, and the culture medium acidified (pH˜2) by the addition of HCl. Liquid-liquid extraction was then carried out using 2 vol (2 ml) ethyl acetate, with organic and aqueous phases being resolved by centrifugation (2000 rpm, 2 min). ˜0.75 ml of each organic (upper) phase was then transferred to a fresh sampling tube prior to analysis on a Perkin Elmer 8000 (Series 2) GC fitted with a 15 m×0.32 mm (internal diameter) FFAP fused silica capillary column (film thickness 0.25 μm) (Quadrex). Metabolite levels were quantified by comparison of peak areas with known amounts of both internal (caproic acid) and externally-run (propionic acid) standards. GC running conditions as indicated: injector (split/splitless), 300° C.; detector (flame ionisation), 300° C.; oven, 80° C. (2 min), 80-155° C. (7.5° C./min), 155° C. (1 min); injection volume, 1.0 μl.

[2] = tested on: P. acnes G63 and P. avidum NCTC 11864; assay: In vitro propionibacterial model: glucose biotransformation to propionic acid (GC) and culture viability (TVC); type: cell-based; settings: for BIC50 MoA(s), mode(s) of action at BIC50 levels: P. acnes G63 and P. avidum NCTC 11864, by reference to culture viability data; for BIC50, mean concentration at 50% inhibition of glucose biotransformation to propionic acid: mean of P. acnes G63 and P. avidum NCTC 11864, anaerobic, 35° C.; for BIC50, mean concentration at 50% inhibition of glucose biotransformation to propionic acid / MBC, range of minimum bactericidal levels: 24 h; for MBC, range of minimum bactericidal levels: range for P. acnes G63 and P. avidum NCTC 11864, minimum level effecting >3 log10 reduction in viability
Protocol: as §1, §2, §3, §4, §5

[3] = Corynebacterium sp. NCIMB 40928, 24 h
[4] = Corynebacterium sp. NCIMB 40928

| Compound | BIC50, concentration at 50% inhibition of pentadecanoic acid biotransformation to propionic acid [1, 3] | BIC50 MoA(s), mode of action at BIC50 level [1, 4] | MBC ([1]; NCIMB40928, Corynebacterium sp. NCIMB 40928, minimum level effecting >3 log10 reduction in viability, 24 h) | BIC50 MoA(s), mode(s) of action at BIC50 levels [2] | selectivity for Propionibacterium spp. compared to other bacteria normally present on the skin ([2]; comparison of Tables 1 and 2, versus Triclosan) | BIC50, mean concentration at 50% inhibition of glucose biotransformation to propionic acid [2] | MBC, range of minimum bactericidal levels [2] | anti-propionibacterial properties compared with Triclosan ([2]; summary of Table 1) | MBC ([1]; Corynebacterium, NCIMB40928, 24 h) |
| --- | --- | --- | --- | --- | --- | --- | --- | --- | --- |
| CCCCCCc1ccc(O)cc1O [4-Hexylresorcinol, 4-hexylresorcinol] | 118 ppm | Bacteriostatic | > 500 µg/mL | Bacteriostatic/; also recorded: Bactericidal | far greater selectivity than Triclosan | 42 ppm | 50-100 ppm | as good as those of Triclosan | – |
| Oc1cc(Cl)ccc1Oc1ccc(Cl)cc1Cl [Triclosan, 2,4,4′-trichloro-2′-hydroxydiphenyl ether, reference compound] | 20 ppm | Bacteriostatic | – | Bactericidal; also recorded: Bacteriostatic/ | – | 39 ppm | 50-100 ppm | – | 50 µg/mL (≈ 173 µM) |
